How the values were obtained:
[1] = target: Fibroblast growth factor receptor 3 (Homo sapiens) (UniProt P22607); assay: FGFR3 Kinase screen; conditions: Compound concentration 1.0 uM
[2] = target: Tyrosine-protein kinase JAK2 (Homo sapiens) (UniProt O60674); assay: JAK2 JH1 JH2 Kinase screen; conditions: Compound concentration 1.0 uM
[3] = target: Mast/stem cell growth factor receptor Kit (Homo sapiens) (UniProt P10721); assay: KIT Kinase screen; conditions: Compound concentration 1.0 uM
[4] = target: T1, Serine/threonine-protein kinase TAO2 (Homo sapiens) (UniProt Q9UL54); assay: TAOK2 (TAO1) Kinase screen; conditions: Compound concentration 1.0 uM
T1 sequence (whole entry): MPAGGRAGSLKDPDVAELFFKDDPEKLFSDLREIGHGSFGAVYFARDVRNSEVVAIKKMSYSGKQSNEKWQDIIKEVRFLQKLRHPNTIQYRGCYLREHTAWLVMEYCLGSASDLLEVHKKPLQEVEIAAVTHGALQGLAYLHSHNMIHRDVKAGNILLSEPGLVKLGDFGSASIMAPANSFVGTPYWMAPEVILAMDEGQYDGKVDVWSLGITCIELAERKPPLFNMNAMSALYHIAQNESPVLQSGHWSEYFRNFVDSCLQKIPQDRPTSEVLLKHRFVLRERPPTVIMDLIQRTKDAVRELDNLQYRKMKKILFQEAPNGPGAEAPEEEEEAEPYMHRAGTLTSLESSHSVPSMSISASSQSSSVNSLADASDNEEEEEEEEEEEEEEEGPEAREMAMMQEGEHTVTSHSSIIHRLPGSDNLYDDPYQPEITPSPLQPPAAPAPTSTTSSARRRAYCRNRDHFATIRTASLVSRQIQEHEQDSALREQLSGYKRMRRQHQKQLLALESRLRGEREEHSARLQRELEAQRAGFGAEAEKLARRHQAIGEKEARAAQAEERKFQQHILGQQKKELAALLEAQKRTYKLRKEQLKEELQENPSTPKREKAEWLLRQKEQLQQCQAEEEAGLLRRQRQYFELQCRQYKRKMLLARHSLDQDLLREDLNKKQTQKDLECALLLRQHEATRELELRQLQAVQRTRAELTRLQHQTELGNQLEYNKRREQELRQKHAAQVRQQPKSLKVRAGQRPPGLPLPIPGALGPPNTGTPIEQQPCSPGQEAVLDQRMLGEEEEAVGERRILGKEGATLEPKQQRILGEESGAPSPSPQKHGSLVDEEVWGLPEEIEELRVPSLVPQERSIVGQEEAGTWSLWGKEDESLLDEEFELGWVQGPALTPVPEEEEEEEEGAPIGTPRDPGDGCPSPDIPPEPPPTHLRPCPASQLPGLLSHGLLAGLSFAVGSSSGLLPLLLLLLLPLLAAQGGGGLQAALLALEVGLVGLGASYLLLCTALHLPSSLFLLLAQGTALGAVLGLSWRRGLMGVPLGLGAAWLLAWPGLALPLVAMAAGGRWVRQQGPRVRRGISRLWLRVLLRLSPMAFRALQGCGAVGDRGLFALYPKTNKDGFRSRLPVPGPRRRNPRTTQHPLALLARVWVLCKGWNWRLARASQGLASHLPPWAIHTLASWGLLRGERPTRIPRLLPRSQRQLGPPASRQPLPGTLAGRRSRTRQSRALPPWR

[5] = target: Rho-associated protein kinase 2 (Homo sapiens) (UniProt O75116); assay: ROCK2 Kinase screen; conditions: Compound concentration 1.0 uM
Rattus norvegicus = organism: Rattus norvegicus; conditions: Compound concentration 10.0 uM
[6] = target: 5-hydroxytryptamine receptor 6 (Homo sapiens) (UniProt P50406); assay: Inhibition of Serotonin (5-Hydroxytryptamine) 5-HT6 at 10 µM in the Eurofins-Panlabs radioligand binding assay (Eurofins_assay_272200); conditions: Compound concentration 10.0 uM
[7] = system: Epidermal growth factor receptor (Homo sapiens), P00533 [L858R]; assay: EGFR (ErbB1) L858R Kinase screen; conditions: Compound concentration 1.0 uM
[8] = target: Ephrin type-A receptor 2 (Homo sapiens) (UniProt P29317); assay: EPHA2 Kinase screen; conditions: Compound concentration 1.0 uM
Chain of Ephrin type-A receptor 2 (Homo sapiens) (P29317 whole entry): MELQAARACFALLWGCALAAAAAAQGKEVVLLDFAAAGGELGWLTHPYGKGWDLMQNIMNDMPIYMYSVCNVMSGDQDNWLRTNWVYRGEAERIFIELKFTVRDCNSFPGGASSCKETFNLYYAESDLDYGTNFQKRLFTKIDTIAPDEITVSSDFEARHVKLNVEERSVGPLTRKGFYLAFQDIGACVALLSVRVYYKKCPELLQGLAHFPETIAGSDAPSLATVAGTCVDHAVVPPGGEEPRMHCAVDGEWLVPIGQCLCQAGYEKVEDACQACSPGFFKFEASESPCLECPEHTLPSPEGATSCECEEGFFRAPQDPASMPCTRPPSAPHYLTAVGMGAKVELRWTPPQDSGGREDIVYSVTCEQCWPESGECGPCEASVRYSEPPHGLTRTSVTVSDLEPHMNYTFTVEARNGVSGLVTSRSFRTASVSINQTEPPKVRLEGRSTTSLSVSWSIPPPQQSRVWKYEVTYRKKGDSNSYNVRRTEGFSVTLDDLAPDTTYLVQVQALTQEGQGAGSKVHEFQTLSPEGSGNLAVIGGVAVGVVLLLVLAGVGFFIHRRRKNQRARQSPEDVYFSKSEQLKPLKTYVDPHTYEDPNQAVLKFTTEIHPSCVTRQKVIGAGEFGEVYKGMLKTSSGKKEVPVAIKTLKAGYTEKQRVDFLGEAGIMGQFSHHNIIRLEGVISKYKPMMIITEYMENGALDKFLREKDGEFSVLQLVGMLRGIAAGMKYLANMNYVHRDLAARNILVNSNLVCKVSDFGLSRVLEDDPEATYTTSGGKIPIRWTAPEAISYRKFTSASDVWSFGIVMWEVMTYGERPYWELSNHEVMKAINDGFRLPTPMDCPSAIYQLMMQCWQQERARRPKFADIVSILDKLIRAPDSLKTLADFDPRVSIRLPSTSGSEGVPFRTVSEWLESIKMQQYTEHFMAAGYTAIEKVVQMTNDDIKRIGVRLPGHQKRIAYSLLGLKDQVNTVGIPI

[9] = target: MAP kinase-interacting serine/threonine-protein kinase 1 (Homo sapiens) (UniProt Q9BUB5); assay: MKNK1 (MNK1) Kinase screen; conditions: Compound concentration 1.0 uM
Chain of MAP kinase-interacting serine/threonine-protein kinase 1 (Homo sapiens) (Q9BUB5 whole entry, looked up): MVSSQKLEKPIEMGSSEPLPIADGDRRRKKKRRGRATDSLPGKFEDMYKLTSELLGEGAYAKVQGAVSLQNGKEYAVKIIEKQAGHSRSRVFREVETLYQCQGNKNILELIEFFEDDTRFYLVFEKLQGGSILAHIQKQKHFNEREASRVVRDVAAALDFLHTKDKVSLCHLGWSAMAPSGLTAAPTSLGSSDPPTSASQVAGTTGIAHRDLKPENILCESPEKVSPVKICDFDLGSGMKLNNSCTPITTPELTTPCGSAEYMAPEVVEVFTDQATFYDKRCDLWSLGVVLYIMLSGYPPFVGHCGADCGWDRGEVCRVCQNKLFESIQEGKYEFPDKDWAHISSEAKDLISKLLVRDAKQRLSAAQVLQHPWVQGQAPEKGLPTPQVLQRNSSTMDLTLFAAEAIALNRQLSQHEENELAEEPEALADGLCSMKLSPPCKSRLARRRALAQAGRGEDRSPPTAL

[10] = target: Hepatocyte growth factor receptor (Homo sapiens) (UniProt P08581); assay: MET (cMet) Kinase screen; conditions: Compound concentration 1.0 uM
Chain of Hepatocyte growth factor receptor (Homo sapiens) (P08581 whole entry): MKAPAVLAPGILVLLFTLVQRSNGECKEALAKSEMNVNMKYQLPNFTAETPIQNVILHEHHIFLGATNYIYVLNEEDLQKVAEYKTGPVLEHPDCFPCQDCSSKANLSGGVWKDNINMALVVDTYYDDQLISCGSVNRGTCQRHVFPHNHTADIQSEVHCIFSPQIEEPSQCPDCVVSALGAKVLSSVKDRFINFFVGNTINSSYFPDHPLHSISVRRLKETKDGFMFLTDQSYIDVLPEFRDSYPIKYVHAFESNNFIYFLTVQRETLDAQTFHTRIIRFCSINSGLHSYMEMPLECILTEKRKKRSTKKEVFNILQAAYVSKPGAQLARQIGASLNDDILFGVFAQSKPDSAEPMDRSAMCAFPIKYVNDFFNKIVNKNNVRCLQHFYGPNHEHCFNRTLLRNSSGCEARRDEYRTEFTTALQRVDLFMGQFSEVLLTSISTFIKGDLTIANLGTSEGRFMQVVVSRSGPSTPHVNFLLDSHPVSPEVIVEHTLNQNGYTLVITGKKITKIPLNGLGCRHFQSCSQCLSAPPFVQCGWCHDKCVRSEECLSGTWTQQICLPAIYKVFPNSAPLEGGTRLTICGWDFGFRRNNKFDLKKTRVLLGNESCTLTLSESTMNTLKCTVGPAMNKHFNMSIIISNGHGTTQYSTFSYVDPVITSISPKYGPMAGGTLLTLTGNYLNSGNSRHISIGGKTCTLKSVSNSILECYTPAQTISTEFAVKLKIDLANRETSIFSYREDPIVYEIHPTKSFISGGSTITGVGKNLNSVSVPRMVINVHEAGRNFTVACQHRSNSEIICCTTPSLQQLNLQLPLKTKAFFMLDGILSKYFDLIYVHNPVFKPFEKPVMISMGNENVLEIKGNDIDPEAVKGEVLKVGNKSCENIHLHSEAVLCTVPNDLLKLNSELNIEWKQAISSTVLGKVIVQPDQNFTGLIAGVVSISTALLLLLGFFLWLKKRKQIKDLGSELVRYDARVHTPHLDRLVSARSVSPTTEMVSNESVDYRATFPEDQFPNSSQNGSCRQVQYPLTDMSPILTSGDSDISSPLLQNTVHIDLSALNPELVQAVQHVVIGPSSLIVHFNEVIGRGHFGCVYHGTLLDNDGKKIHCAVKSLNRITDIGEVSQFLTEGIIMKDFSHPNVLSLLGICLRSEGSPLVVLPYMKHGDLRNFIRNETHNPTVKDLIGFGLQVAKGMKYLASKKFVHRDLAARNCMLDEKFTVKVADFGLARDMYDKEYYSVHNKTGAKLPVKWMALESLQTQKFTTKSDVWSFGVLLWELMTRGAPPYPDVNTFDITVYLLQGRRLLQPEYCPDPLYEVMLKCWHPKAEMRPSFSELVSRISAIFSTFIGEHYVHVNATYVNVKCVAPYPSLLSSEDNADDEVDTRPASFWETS

Caspase-9 (Homo sapiens) = Caspase-9 (Homo sapiens) (UniProt P55211); assay: Peptidase, CASP9 (Caspase 9) Eurofins-Panlabs enzyme assay; design: substrate with concentration; conditions: Compound concentration 10.0 uM
[11] = target: T2, Inhibitor of nuclear factor kappa-B kinase subunit epsilon (Homo sapiens) (UniProt Q14164); assay: IKBKE (IKK epsilon) Kinase screen; conditions: Compound concentration 1.0 uM
T2 sequence (whole entry): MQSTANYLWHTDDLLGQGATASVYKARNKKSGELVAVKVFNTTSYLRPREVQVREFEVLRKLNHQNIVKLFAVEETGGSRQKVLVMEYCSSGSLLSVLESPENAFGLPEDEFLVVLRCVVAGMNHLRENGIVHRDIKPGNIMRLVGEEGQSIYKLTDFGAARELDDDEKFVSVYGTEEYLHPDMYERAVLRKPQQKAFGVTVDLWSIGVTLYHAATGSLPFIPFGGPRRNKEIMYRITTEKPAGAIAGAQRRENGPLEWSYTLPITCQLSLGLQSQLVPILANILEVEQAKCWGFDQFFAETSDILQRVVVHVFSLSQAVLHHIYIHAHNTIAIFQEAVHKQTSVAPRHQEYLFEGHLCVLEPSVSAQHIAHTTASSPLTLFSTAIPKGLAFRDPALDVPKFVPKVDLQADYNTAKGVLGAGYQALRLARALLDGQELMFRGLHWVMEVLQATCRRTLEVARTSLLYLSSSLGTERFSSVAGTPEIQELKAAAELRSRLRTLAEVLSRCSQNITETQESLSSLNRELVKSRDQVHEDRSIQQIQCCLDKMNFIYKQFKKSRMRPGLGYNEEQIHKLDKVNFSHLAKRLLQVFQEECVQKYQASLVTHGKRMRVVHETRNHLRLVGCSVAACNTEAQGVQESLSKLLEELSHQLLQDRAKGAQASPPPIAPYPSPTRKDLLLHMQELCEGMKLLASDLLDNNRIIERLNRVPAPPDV

[12] = target: Protein-tyrosine kinase 2-beta (Homo sapiens) (UniProt Q14289); assay: PTK2B (FAK2) Kinase screen; conditions: Compound concentration 1.0 uM
Chain of Protein-tyrosine kinase 2-beta (Homo sapiens) (Q14289 whole entry, looked up): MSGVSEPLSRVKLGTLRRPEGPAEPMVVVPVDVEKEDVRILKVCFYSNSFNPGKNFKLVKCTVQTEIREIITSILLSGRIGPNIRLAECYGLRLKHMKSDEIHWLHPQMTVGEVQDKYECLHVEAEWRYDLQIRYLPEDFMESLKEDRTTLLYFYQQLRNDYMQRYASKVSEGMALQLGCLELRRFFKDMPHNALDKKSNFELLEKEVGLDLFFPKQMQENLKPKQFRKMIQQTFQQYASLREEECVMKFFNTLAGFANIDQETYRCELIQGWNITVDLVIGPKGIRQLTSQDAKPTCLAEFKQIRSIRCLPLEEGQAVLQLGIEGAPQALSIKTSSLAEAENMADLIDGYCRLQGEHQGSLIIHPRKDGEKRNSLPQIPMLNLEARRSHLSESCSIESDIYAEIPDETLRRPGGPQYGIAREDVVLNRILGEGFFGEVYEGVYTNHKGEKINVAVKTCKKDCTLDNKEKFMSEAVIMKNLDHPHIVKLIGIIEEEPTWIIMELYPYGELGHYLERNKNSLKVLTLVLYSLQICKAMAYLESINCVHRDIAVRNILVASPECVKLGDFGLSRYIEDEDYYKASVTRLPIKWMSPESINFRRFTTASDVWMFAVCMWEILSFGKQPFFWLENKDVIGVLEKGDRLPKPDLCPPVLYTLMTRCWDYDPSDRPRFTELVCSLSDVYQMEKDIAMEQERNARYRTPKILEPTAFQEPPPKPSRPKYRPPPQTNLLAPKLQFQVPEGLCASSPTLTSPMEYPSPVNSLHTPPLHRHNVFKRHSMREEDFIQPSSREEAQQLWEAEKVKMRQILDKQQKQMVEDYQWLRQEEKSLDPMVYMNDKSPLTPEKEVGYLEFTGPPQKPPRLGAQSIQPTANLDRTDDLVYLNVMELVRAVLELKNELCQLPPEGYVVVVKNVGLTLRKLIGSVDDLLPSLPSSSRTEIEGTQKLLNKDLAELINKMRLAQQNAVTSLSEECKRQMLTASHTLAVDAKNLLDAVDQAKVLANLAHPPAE

[13] = target: T3, Aurora kinase A (Homo sapiens) (UniProt O14965); assay: AURKA (Aurora A) Kinase screen; conditions: Compound concentration 1.0 uM
T3 sequence (whole entry): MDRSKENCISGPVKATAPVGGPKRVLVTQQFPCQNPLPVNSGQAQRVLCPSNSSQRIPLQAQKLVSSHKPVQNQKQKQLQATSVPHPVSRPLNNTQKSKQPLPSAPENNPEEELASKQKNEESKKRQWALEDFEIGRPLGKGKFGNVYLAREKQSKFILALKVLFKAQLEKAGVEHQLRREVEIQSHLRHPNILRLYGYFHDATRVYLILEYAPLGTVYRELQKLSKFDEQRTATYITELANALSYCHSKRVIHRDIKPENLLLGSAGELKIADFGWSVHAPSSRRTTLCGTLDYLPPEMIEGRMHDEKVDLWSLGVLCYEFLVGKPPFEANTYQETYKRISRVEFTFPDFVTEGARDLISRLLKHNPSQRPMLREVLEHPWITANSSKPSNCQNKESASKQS

Measured: inhibition

Chain of Mast/stem cell growth factor receptor Kit (Homo sapiens) (P10721 whole entry): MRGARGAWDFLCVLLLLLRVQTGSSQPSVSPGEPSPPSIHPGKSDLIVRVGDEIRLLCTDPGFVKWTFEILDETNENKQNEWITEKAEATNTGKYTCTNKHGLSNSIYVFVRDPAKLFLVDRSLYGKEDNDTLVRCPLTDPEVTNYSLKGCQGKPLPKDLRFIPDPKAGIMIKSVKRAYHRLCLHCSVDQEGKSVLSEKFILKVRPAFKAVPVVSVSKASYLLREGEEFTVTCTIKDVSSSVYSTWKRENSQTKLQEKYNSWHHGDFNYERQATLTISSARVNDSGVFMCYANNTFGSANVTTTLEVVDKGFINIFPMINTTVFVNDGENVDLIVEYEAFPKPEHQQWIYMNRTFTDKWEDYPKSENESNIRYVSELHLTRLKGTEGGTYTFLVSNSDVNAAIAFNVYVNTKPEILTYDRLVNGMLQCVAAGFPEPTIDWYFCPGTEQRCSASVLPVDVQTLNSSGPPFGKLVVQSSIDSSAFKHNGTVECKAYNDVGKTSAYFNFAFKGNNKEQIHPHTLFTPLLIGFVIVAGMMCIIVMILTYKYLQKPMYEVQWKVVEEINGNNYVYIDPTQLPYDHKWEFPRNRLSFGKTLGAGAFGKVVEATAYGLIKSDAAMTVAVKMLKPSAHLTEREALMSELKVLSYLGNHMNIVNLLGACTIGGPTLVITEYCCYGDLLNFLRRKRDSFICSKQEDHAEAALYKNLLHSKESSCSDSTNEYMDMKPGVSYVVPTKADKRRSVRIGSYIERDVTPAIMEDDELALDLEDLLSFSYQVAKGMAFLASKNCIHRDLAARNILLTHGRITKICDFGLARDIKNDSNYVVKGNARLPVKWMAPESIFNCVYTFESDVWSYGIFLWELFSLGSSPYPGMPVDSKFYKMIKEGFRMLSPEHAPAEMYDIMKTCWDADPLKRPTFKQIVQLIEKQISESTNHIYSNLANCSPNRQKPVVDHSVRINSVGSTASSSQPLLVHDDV

C[C@@H]1CN(c2cc(-c3n[nH]c4ccc(OC5(C)CC5)cc34)ncn2)C[C@H](C)O1 [MLi-2]
inactive: [1] 9.38% | [2] -4.32% | [3] 5.52% | [4] -2.67% | [5] 10.2% | Rattus norvegicus 0% | [6] 3% | [7] -0.455% | [8] -4.26% | [9] -3.19% | [10] 5.51% | Caspase-9 (Homo sapiens) 5% | [11] 1.77% | [12] 2.48% | [13] -0.211%
